Reference: patent US10752624B2, “Kinase inhibitors” (Origenis GmbH, priority 2012, dated 2020)

How the values were obtained:
SYK kinase = biological target: T1, SYK kinase (Homo sapiens, UniProt P43405); assay: SYK Assay (OMNIA Kinase Assay, SOX peptide fluorescence); format: biochemical; details: 1 mM ATP, 10 μM Omnia Peptide Substrate Tyr 7, 30° C., readings for 30 minutes; read-out: SYK Activities: IC50
T1 construct: purchased Invitrogen, Carlsbad
Procedure: In the assay OMNIA® KINASE ASSAY by Invitrogen Corporation (Carlsbad) the effect of invention of a compound on the phosphorylation is determined by measurement of fluorescence intensity of a chelation-enhanced fluorophore called SOX. Upon phosphorylation of the peptide by the kinase of interest, Mg2+ is chelated to form a bridge between the SOX moiety and the phosphate group that is transferred to the specific tyrosine on the peptide. The fluorescence intensity is directly proportional to the amount of peptide phosphorylation.
To the wells of an 384 well small volume plate (Greiner, Frickenhausen) are added (i) the compound under test in 5% DMSO/distilled water (2 μl), (ii) 16 μl of the master mix containing ATP, DTT, Kinase Reaction Buffer, Omina Peptide Substrate Tyr 7 resulting in a final concentration of 1 mM ATP, 0.2 mM DTT and 10 μM Peptide Substrate.
The Master Mix and the assay plate was incubated to reaction temperature before the measurement (30° C.). The reaction was started with addition of (iii) 2 μl 4 μg/ml SYK kinase (Invitrogen, Carlsbad). During measurement fluorescence intensity readings were collected using a TECAN M1000 at a wavelength of λex 360/λem 485 nm every 30 s for 30 minutes. The reaction velocity was plotted versus the inhibitor concentration to determine the IC50 using XLFit 5.0 (IDBS, Guildford) to fit to a sigmoidal dose response curve.

LRRK2 = LRRK2 (Homo sapiens, UniProt Q5S007); assay: LRRK2-LRRK2 G2019S-Assay (LanthaScreen Eu Kinase Binding Assay); details: 5 nM LRRK2, 10 nM tracer 236, 2 nM EU-Anti-GST antibody, 1 h at RT; read-out: LRRK2 Activities: IC50
Chain of LRRK2 (Q5S007 970-2527 limits assumed): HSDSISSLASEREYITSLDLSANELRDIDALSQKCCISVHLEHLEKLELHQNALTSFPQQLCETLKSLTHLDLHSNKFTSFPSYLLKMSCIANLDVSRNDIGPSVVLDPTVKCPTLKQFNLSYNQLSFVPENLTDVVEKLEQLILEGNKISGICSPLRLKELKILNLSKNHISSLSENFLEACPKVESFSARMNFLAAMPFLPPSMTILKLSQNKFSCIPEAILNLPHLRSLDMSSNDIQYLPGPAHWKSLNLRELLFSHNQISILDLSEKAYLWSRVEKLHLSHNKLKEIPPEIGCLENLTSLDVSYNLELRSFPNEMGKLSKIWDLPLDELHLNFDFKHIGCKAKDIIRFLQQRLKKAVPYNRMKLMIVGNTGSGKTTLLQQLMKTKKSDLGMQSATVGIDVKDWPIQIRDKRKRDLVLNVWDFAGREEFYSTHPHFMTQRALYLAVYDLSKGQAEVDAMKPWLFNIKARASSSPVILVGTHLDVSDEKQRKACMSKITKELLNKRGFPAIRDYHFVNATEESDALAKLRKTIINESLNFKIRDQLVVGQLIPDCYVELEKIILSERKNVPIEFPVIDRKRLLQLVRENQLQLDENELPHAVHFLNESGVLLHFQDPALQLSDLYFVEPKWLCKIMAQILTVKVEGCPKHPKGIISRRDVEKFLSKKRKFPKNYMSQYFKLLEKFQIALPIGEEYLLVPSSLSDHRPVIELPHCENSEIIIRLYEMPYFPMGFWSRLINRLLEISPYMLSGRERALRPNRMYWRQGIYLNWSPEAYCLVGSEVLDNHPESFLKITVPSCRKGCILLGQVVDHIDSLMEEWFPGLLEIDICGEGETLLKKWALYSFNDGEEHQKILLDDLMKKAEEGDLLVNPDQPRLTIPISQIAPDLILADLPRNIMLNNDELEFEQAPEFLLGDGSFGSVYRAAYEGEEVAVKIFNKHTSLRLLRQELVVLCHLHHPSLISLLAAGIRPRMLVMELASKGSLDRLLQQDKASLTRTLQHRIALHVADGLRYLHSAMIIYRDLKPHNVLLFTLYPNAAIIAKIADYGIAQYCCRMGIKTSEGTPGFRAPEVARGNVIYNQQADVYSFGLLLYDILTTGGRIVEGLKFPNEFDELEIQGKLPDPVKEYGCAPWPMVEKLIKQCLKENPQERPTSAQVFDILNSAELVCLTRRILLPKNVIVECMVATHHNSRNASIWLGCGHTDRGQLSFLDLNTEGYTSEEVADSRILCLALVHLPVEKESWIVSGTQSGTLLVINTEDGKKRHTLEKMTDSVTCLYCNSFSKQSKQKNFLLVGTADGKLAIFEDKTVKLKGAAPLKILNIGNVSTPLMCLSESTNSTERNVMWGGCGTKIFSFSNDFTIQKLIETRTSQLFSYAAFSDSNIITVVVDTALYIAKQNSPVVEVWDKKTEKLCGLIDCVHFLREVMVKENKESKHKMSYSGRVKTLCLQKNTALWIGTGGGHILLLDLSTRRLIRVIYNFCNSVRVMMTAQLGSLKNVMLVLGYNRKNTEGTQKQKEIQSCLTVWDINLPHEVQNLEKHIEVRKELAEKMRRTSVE
Outline: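 In a TR-FRET tracer displacement assay, LRRK2 or its mutants at 5 nM were mixed with 2 nM Eu-anti-GST antibody and 10 nM tracer 236 in kinase buffer A for 1 h at RT. The 665/615 nm emission ratio was plotted against inhibitor concentration, and IC50 came from a variable-slope sigmoidal fit.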

Structure (SMILES) | IC50 (SYK kinase) | IC50 (LRRK2)
CS(=O)(=O)c1ccc2nc(Nc3cnn(C4CCCOC4)c3)c3n[nH]cc3c2c1 (stereo not drawn) [Example 323, 8-(methylsulfonyl)-N-(1-(tetrahydro-2H-pyran-3-yl)-1H-pyrazol-4-yl)-2H-pyrazolo[3,4-c]quinolin-4-amine] | 10 to 100 nM | 10 to 100 nM
COc1ccc2nc(Nc3cnn(C4CCN(C(C)(C)C)CC4)c3)c3[nH]ncc3c2c1 [Example 300, N-(1-(1-(tert-butyl)piperidin-4-yl)-1H-pyrazol-4-yl)-8-methoxy-3H-pyrazolo[3,4-c]quinolin-4-amine] | 100 to 1000 nM | 10 to 100 nM
Brc1ccc2c(c1)nc(Nc1cnn(C3CCOCC3)c1)c1n[nH]cc12 [Example 348, 7-bromo-N-(1-(tetrahydro-2H-pyran-4-yl)-1H-pyrazol-4-yl)-2H-pyrazolo[3,4-c]quinolin-4-amine] | 10 to 100 nM | < 10 nM
COc1ccc(Nc2nc3cc(S(C)(=O)=O)ccc3c3cn[nH]c23)cc1OC [Example 302, N-(3,4-dimethoxyphenyl)-7-(methylsulfonyl)-3H-pyrazolo[3,4-c]quinolin-4-amine] | 100 to 1000 nM | 100 to 1000 nM
CS(=O)(=O)c1ccc2nc(Nc3ccc(N4CCN(CCO)CC4)cc3)c3[nH]ncc3c2c1 [Example 309, 2-(4-(4-((8-(methylsulfonyl)-3H-pyrazolo[3,4-c]quinolin-4-yl)amino)phenyl)piperazin-1-yl)ethan-1-ol] | 10 to 100 nM | < 10 nM
CS(=O)(=O)c1ccc2nc(Nc3cnn(C4(C#N)CCCCC4)c3)c3[nH]ncc3c2c1 [Example 179, 1-(4-((8-(methylsulfonyl)-3H-pyrazolo[3,4-c]quinolin-4-yl)amino)-1H-pyrazol-1-yl)cyclohexanecarbonitrile] | 10 to 100 nM | < 10 nM
COc1ccc2nc(Nc3cnn(C(C)(C)C)c3)c3[nH]ncc3c2c1 [Example 286, N-(1-(tert-butyl)-1H-pyrazol-4-yl)-8-methoxy-3H-pyrazolo[3,4-c]quinolin-4-amine] | 100 to 1000 nM | < 10 nM
COc1cccc2nc(Nc3ccc(N4CCC(N5CCN(C)CC5)CC4)cc3)c3[nH]ncc3c12 [Example 21, 9-methoxy-N-(4-(4-(4-methylpiperazin-1-yl)piperidin-1-yl)phenyl)-3H-pyrazolo[3,4-c]quinolin-4-amine] | 100 to 1000 nM | 10 to 100 nM
COCCCn1ncc(Nc2nc3ccc(S(C)(=O)=O)cc3c3cn[nH]c23)c1OC [Example 232, N-(5-methoxy-1-(3-methoxypropyl)-1H-pyrazol-4-yl)-8-(methylsulfonyl)-3H-pyrazolo[3,4-c]quinolin-4-amine] | 100 to 1000 nM | 10 to 100 nM
COCCn1cc(Nc2nc3cc(S(C)(=O)=O)ccc3c3cn[nH]c23)cn1 [Example 170, N-(1-(2-methoxyethyl)-1H-pyrazol-4-yl)-7-(methylsulfonyl)-3H-pyrazolo[3,4-c]quinolin-4-amine] | 100 to 1000 nM | 100 to 1000 nM
COCC(COC)n1cc(Nc2nc3ccc(OC)cc3c3c[nH]nc23)cn1 [Example 313, N-(1-(1,3-dimethoxypropan-2-yl)-1H-pyrazol-4-yl)-8-methoxy-2H-pyrazolo[3,4-c]quinolin-4-amine] | 100 to 1000 nM | 10 to 100 nM
COc1c(Nc2nc3ccc(S(C)(=O)=O)cc3c3cn[nH]c23)cnn1C(C)C [Example 227, N-(1-isopropyl-5-methoxy-1H-pyrazol-4-yl)-8-(methylsulfonyl)-3H-pyrazolo[3,4-c]quinolin-4-amine] | 100 to 1000 nM | < 10 nM
CN1CCN(C2CCN(c3ccc(Nc4nc5cccc(F)c5c5cn[nH]c45)cc3)CC2)CC1 [Example 1, 9-fluoro-N-(4-(4-(4-methylpiperazin-1-yl)piperidin-1-yl)phenyl)-3H-pyrazolo[3,4-c]quinolin-4-amine] | 100 to 1000 nM | 10 to 100 nM
COc1cccc2nc(Nc3cnn(CCO)c3)c3[nH]ncc3c12 [Example 199, 2-(4-((9-methoxy-3H-pyrazolo[3,4-c]quinolin-4-yl)amino)-1H-pyrazol-1-yl)ethan-1-ol] | 100 to 1000 nM | < 10 nM
CS(=O)(=O)c1ccc2nc(Nc3ccc4c(c3)NC(=O)CCC4)c3[nH]ncc3c2c1 [Example 77, 8-((8-(methylsulfonyl)-3H-pyrazolo[3,4-c]quinolin-4-yl)amino)-4,5-dihydro-1H-benzo[b]azepin-2(3H)-one] | < 10 nM | < 10 nM

Now from value to compound:

IC50 (SYK kinase) | IC50 (LRRK2) | Structure (SMILES)
100 to 1000 nM | 10 to 100 nM | COc1cccc2nc(Nc3ccc(N4CCN(C)CC4)nc3)c3[nH]ncc3c12 [Example 79, 9-methoxy-N-(6-(4-methylpiperazin-1-yl)pyridin-3-yl)-3H-pyrazolo[3,4-c]quinolin-4-amine]
100 to 1000 nM | 10 to 100 nM | CS(=O)(=O)c1cccc2nc(Nc3ccc4c(c3)NC(=O)CCC4)c3[nH]ncc3c12 [Example 98, 8-((9-(methylsulfonyl)-3H-pyrazolo[3,4-c]quinolin-4-yl)amino)-4,5-dihydro-1H-benzo[b]azepin-2(3H)-one]
100 to 1000 nM | 10 to 100 nM | CS(=O)(=O)c1cccc2nc(Nc3cnn(C4CCOCC4)c3)c3[nH]ncc3c12 [Example 108, 9-(methylsulfonyl)-N-(1-(tetrahydro-2H-pyran-4-yl)-1H-pyrazol-4-yl)-3H-pyrazolo[3,4-c]quinolin-4-amine]
100 to 1000 nM | 10 to 100 nM | COc1cc(C(=O)N2CCOCC2)ccc1Nc1nc2ccc(S(C)(=O)=O)cc2c2cn[nH]c12 [Example 196, (3-methoxy-4-((8-(methylsulfonyl)-3H-pyrazolo[3,4-c]quinolin-4-yl)amino)phenyl)(morpholino)methanone]
10 to 100 nM | 10 to 100 nM | CN1CCN(C(=O)c2ccc(Nc3nc4ccc(S(C)(=O)=O)cc4c4cn[nH]c34)cc2)CC1 [Example 65, (4-methylpiperazin-1-yl)(4-((8-(methylsulfonyl)-3H-pyrazolo[3,4-c]quinolin-4-yl)amino)phenyl)methanone]
10 to 100 nM | < 10 nM | CS(=O)(=O)c1ccc2nc(Nc3cnn(C4CCOCC4)c3)c3[nH]ncc3c2c1 [Example 143, 8-(methylsulfonyl)-N-(1-(tetrahydro-2H-pyran-4-yl)-1H-pyrazol-4-yl)-3H-pyrazolo[3,4-c]quinolin-4-amine]
10 to 100 nM | < 10 nM | COc1cccc2nc(Nc3cnn(C4CCN(C(C)(C)C)CC4)c3)c3[nH]ncc3c12 [Example 206, N-(1-(1-(tert-butyl)piperidin-4-yl)-1H-pyrazol-4-yl)-9-methoxy-3H-pyrazolo[3,4-c]quinolin-4-amine]
10 to 100 nM | 10 to 100 nM | COc1ccc2nc(Nc3cnn(C(C)C)c3)c3[nH]ncc3c2c1 [Example 292, N-(1-isopropyl-1H-pyrazol-4-yl)-8-methoxy-3H-pyrazolo[3,4-c]quinolin-4-amine]
10 to 100 nM | < 10 nM | C=C(C)Cn1cc(Nc2nc3ccc(S(C)(=O)=O)cc3c3cn[nH]c23)cn1 [Example 264, N-(1-(2-methylallyl)-1H-pyrazol-4-yl)-8-(methylsulfonyl)-3H-pyrazolo[3,4-c]quinolin-4-amine]
10 to 100 nM | < 10 nM | CS(=O)(=O)c1ccc2nc(Nc3cnn(CCO)c3)c3[nH]ncc3c2c1 [Example 186, 2-(4-((8-(methylsulfonyl)-3H-pyrazolo[3,4-c]quinolin-4-yl)amino)-1H-pyrazol-1-yl)ethan-1-ol]
100 to 1000 nM | < 10 nM | COc1cccc2nc(Nc3cnn(CC(C)(C)O)c3)c3[nH]ncc3c12 [Example 256, 1-(4-((9-methoxy-3H-pyrazolo[3,4-c]quinolin-4-yl)amino)-1H-pyrazol-1-yl)-2-methylpropan-2-ol]
100 to 1000 nM | 10 to 100 nM | COc1ccc2nc(Nc3ccc(N4CCC(N5CCN(C)CC5)CC4)cc3)c3n[nH]cc3c2c1 [Example 3, 8-methoxy-N-(4-(4-(4-methylpiperazin-1-yl)piperidin-1-yl)phenyl)-2H-pyrazolo[3,4-c]quinolin-4-amine]
< 10 nM | < 10 nM | CS(=O)(=O)c1ccc2nc(Nc3cnn(CCF)c3)c3[nH]ncc3c2c1 [Example 221, N-(1-(2-fluoroethyl)-1H-pyrazol-4-yl)-8-(methylsulfonyl)-3H-pyrazolo[3,4-c]quinolin-4-amine]
< 10 nM | < 10 nM | CC(C)n1cc(Nc2nc3ccc(S(C)(=O)=O)cc3c3cn[nH]c23)cn1 [Example 180, N-(1-isopropyl-1H-pyrazol-4-yl)-8-(methylsulfonyl)-3H-pyrazolo[3,4-c]quinolin-4-amine]
10 to 100 nM | 10 to 100 nM | CS(=O)(=O)c1ccc2nc(Nc3ccc(N4CCC(O)CC4)cc3)c3[nH]ncc3c2c1 [Example 316, 1-(4-((8-(methylsulfonyl)-3H-pyrazolo[3,4-c]quinolin-4-yl)amino)phenyl)piperidin-4-ol]
